Here are results for five compounds from patent US12678430B2, “Compositions and methods for the treatment of liver disorders” (Viking Therapeutics, Inc., priority 2020, dated 2026).

Structures are written as SMILES.

The subject of assay [1] is diet-induced NASH mice. Description: Example 7: diet-induced (GAN diet) NASH mice, Compound 2, FXR agonists and combinations. The note with it: for blood glucose level compared to vehicle: FIG. 6; for liver TG levels at the termination of the study: FIG. 8; for plasma triglyceride (TG) levels: as early as seven days, FIG. 7; for relative terminal body weight compared to vehicle: study day 21, FIG. 5; for plasma TG levels compared to vehicle: day 21, FIG. 11; for total liver triglycerides compared to tropifexor: day 21, FIG. 12; for plasma insulin level, significance compared to vehicle / plasma insulin levels compared to vehicle alone and to Compound 2: study day 21, FIG. 9; for plasma ALT level compared to vehicle alone / plasma ALT levels compared to tropifexor: study day 21, FIG. 10. It is filed as in vivo. On the procedure:
NASH was induced in mice by feeding mice a Gubra amylin NASH (GAN) diet as described in Boland et al. World J Gastroenterol. 2019, 25(33): 4904-4920. One week prior to administration of a first dose of compounds, the mice were weighed and randomized, and their food intake was measured. Mice were randomly assigned to dosing groups, with 12 mice per group. Assigned dosages included the following; Compound 2 (10 mg/kg); tropifexor (0.3 mg/kg); Compound 2 (10 mg/kg)+tropifexor (0.3 mg/kg); Compound II-1 (10 mg/kg); Compound 2 (10 mg/kg)+Compound II-1 (30 mg/kg); Compound II-2 (10 mg/kg); and Compound 2 (10 mg/kg)+Compound II-2 (30 mg/kg). One group was mock treated with vehicle only as a control. Dosage of Compound II-1 and Compound II-2 were titrated over 6 days, with a dosage of 3 mg/kg administered on days 0, 1 and 2 and a dosage of 10 mg/kg administered on days 3, 4, and 5. Absolute and relative body weight of the mice were recorded daily.
(§1) Fed blood glucose and fed plasma levels of alanine transaminase (ALT) aspartate transaminase (AST), triglycerides (TG), and total cholesterol (TC) were measured at days 7, 14, 21.
After 3 weeks, animals were sacrificed. Plasma enzymes (P-ALT (alanine aminotransferase) and P-AST (aspartate aminotransferase)), total plasma triglycerides, and total plasma cholesterol were measured, and terminal necropsy of each liver was carried out, determining relative liver weight as a percentage of body weight, assaying total liver biochemistry including total liver triglycerides, plasma insulin and total liver cholesterol, as well as histological evaluation of total liver hydroxyproline, and steatosis. Tissue samples were preserved for characterization using RNAseq.

In assay [2] the test system is diet-induced NASH mice. Description: Example 6: diet-induced (GAN diet) NASH mice, FXR agonists alone. It is filed as in vivo. The note with it: 10 mg/kg; for blood glucose level compared to vehicle: FIG. 2; for plasma triglyceride (TG) levels compared to vehicle: as early as seven days, FIG. 3; for total liver triglycerides: over the course of the study, FIG. 4; for relative terminal body weight compared to vehicle: study day 21, FIG. 1; for liver TG lowering compared to tropifexor: II-1 p<0.05, II-2 p<0.01. On the procedure: NASH was induced in mice by feeding mice a Gubra amylin NASH (GAN) diet as described in Boland et al. World J Gastroenterol. 2019, 25(33): 4904-4920. One week prior to administration of a first dose of compounds, the mice were weighed and randomized, and their food intake was measured. Mice were randomly assigned to dosing groups, with 12 mice per group. Assigned dosages were: Compound II-1 (10 mg/kg); Compound II-2 (10 mg/kg) One group was mock treated with vehicle only as a control. Dosage of Compound II-1 and Compound II-2 were titrated over 3 days, with a dosage of 3 mg/kg administered on days 0, 1 and 2. Dosage of tropifexor was titrated over 2 days, with a dosage of 0.1 mg/kg administered on days 0 and 1. Absolute and relative body weight of the mice were recorded daily.
as §1
After 8 weeks, animals were sacrificed. Plasma enzymes (P-ALT (alanine aminotransferase) and P-AST (aspartate aminotransferase)), total plasma triglycerides, and total plasma cholesterol were measured, and terminal necropsy of each liver was carried out, determining relative liver weight as a percentage of body weight, assaying total liver biochemistry including total liver triglycerides, plasma insulin and total liver cholesterol, as well as histological evaluation of total liver hydroxyproline, and steatosis. Tissue samples were preserved for characterization using RNAseq.

The target in another assay is T1, FXR receptor (Homo sapiens, UniProt Q96RI1).
T1 construct: beta-galactosidase enzyme fragment (EFC/PathHunter); expressed in transfected cells; host or cells: Chinese Hamster Ovary (CHO) cells, stably transfected, clonally derived
T1 sequence (Q96RI1 1-486): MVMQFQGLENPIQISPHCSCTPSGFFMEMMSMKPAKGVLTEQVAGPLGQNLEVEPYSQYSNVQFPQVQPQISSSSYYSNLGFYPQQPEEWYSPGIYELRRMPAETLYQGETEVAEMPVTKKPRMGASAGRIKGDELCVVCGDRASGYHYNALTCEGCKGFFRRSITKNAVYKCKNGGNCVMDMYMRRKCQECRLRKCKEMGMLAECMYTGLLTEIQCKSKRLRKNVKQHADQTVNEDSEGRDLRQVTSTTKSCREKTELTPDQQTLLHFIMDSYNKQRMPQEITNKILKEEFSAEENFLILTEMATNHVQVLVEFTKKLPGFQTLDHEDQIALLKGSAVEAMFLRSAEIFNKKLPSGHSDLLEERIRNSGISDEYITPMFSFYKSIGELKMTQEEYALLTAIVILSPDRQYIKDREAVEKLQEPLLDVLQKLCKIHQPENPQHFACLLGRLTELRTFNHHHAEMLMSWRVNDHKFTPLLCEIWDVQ
Description: In vitro FXR activity, PathHunter enzyme fragment complementation assay in CHO cells. It is filed as cell-based. The note with it: for EC50: CHO PathHunter cells, ten-point dose curve, chemiluminescence; for Emax: CHO, read-out: Max Response (%). On the procedure: Cells were seeded in cell plating reagent in a total volume of 20 μL into 384-well microplates and incubated at 37° C., 5% CO2 humidified incubator for 24 or 48 hours prior to testing. FXR agonists were dissolved in DMSO (dimethyl sulfoxide). Ligands were subsequently diluted in the cell plating reagent to make up desired concentration stock solution. Ten-point dose curve serial dilutions were prepared in cell plating reagent. 5 μL of 5× sample was added to cells and incubated at 37° C. or room temperature for 3-16 hours. Final assay vehicle concentration was 1%. Chemiluminescent signals were generated through addition of 12.5 μL or 15 μL of detection reagent cocktail ([…]), followed by incubation at room temperature for 1 hour. Microplates were read for signal generation using a PerkinElmer Envision instrument to detect chemiluminescence. The percentage activity was calculated using the following formula: % Activity=100%×(mean RLU of test sample−mean RLU of vehicle control)/(mean MAX control ligand−mean RLU of vehicle control).

[3] abbreviates: % Activity relative to MAX control ligand.

Consider `Cc1cc(OCP2(=O)OCC[C@@H](c3cccc(Cl)c3)O2)cc(C)c1Cc1ccc(O)c(C(C)C)c1` (stereo partly drawn) [Compound 2], for which, in the assay with diet-induced NASH mice [1], the “blood glucose level compared to vehicle” value is reported as “lower blood glucose level”, the “liver TG levels at the termination of the study” value (“liver TG levels” below) is “lowered liver TG levels”, the “plasma triglyceride (TG) levels” value is reported as “significantly reduced” and the “relative terminal body weight compared to vehicle” value (shortened to “relative terminal body weight”) was “lower relative terminal body weight”.
Usually EC50 stands for the concentration giving half of the maximal effect. As for `O=P(O)(O)c1cc(F)c2nc(N3[C@@H]4CC[C@H]3CC(OCc3c(-c5ccccc5OC(F)(F)F)noc3C3CC3)C4)sc2c1` (stereo partly drawn) [Compound II-1, (2-((1R,5S)-3-((5-cyclopropyl-3-(2-(trifluoromethoxy)phenyl)isoxazol-4-yl)methoxy)-8-azabicyclo[3.2.1]octan-8-yl)-4-fluorobenzo[d]thiazol-6-yl)phosphonic acid], in the assay on diet-induced NASH mice [2], the “blood glucose level compared to vehicle” value was “lower blood glucose level”, the “plasma triglyceride (TG) levels compared to vehicle” value is recorded as “significantly reduced”, the total liver triglycerides result is reported as “similarly decreased” and the “relative terminal body weight” value was “lower relative terminal body weight”. The “liver TG lowering compared to tropifexor” value in the assay with diet-induced NASH mice [2] was “greater efficacy in lowering liver TG levels”. Further, it took 2860 nM to reach a half-maximal effect on FXR receptor (EC50). Further, the Emax on FXR receptor (setting [3]) was found to be 52%. In the assay on diet-induced NASH mice [1], the “blood glucose level compared to vehicle” value was “lower blood glucose level”, the “liver TG levels” value is given as “lowered liver TG levels”, the “plasma triglyceride (TG) levels” value was “significantly reduced” and the “plasma TG levels compared to vehicle” value is “significant reduction of plasma TG levels”. Moreover, in the assay on diet-induced NASH mice [1], the “total liver triglycerides compared to tropifexor” value is listed as “reduced total liver triglycerides than tropifexor”; the “relative terminal body weight” value was “lower relative terminal body weight”; the “plasma insulin level, significance compared to vehicle” value is “statistically significant reduction of plasma insulin level”; the “plasma insulin levels compared to vehicle alone and to Compound 2” value was “lower insulin levels”. For the same compound, in the assay with diet-induced NASH mice [1], the “plasma ALT level compared to vehicle alone” value is on record as “lower plasma ALT level” and the “plasma ALT levels compared to tropifexor” value is “lower plasma ALT levels”.
Turning to `CP(=O)(O)c1cc(F)c2nc(N3[C@@H]4CC[C@H]3CC(OCc3c(-c5ccccc5OC(F)(F)F)noc3C3CC3)C4)sc2c1` (stereo partly drawn) [Compound II-2], in the assay with diet-induced NASH mice [2], the “blood glucose level compared to vehicle” value was “lower blood glucose level”, the “plasma triglyceride (TG) levels compared to vehicle” value is on record as “significantly reduced”, the total liver triglycerides entry is “similarly decreased” and the “relative terminal body weight” value is “lower relative terminal body weight”. Further, the “liver TG lowering compared to tropifexor” value in the assay with diet-induced NASH mice [2] was “greater efficacy in lowering liver TG levels”. Besides, the “plasma TG lowering compared to tropifexor” value in the assay on diet-induced NASH mice [2] (p<0.05) is on record as “greater efficacy in lowering plasma TG levels”. Besides, at FXR receptor (setting [3]), the “Max Response (%)” value is recorded as 90%. Further, the midpoint of the response on FXR receptor, the EC50, lay at 3080 nM. Also, in the assay on diet-induced NASH mice [1], the “blood glucose level compared to vehicle” value is reported as “lower blood glucose level”, the “liver TG levels” value is “lowered liver TG levels”, the “plasma triglyceride (TG) levels” value is on record as “significantly reduced” and the “plasma TG levels compared to vehicle” value is “significant reduction of plasma TG levels”. Moreover, in the assay with diet-induced NASH mice [1], the “total liver triglycerides compared to tropifexor” value is “reduced total liver triglycerides than tropifexor”; the “relative terminal body weight” value is “lower relative terminal body weight”; the “plasma insulin level, significance compared to vehicle” value is “statistically significant reduction of plasma insulin level”; the “plasma insulin levels compared to vehicle alone and to Compound 2” value is on record as “lower insulin levels”. Also, in the assay on diet-induced NASH mice [1], the “plasma ALT level compared to vehicle alone” value is listed as “lower plasma ALT level” and the “plasma ALT levels compared to tropifexor” value is on record as “lower plasma ALT levels”.
Compound `Oc1cc(-c2cc(F)c3nc(N4[C@@H]5CC[C@H]4CC(OCc4c(-c6ccccc6OC(F)(F)F)noc4C4CC4)C5)sc3c2)on1` (stereo partly drawn) [Compound II-3, 5-(2-((1R,5S)-3-((5-cyclopropyl-3-(2-(trifluoromethoxy)phenyl)isoxazol-4-yl)methoxy)-8-azabicyclo[3.2.1]octan-8-yl)-4-fluorobenzo[d]thiazol-6-yl)isoxazol-3-ol] yielded an EC50 on FXR receptor of 24.6 nM. Besides, at FXR receptor (setting [3]), the Emax worked out at 151%. For the same compound, in the assay with diet-induced NASH mice [1], the “plasma TG levels compared to vehicle” value is reported as “significant reduction of plasma TG levels”; the “total liver triglycerides compared to tropifexor” value is on record as “reduced total liver triglycerides than tropifexor”; the “plasma insulin level, significance compared to vehicle” value was “statistically significant reduction of plasma insulin level”; the “plasma insulin levels compared to vehicle alone and to Compound 2” value was “lower insulin levels”. For the same compound, in the assay with diet-induced NASH mice [1], the “plasma ALT level compared to vehicle alone” value was “lower plasma ALT level” and the “plasma ALT levels compared to tropifexor” value was “lower plasma ALT levels”.
On FXR receptor, `Oc1cc(-c2cc(F)c3nc(N4[C@@H]5CC[C@H]4CC(OCc4c(-c6ccccc6OC(F)(F)F)noc4C4CC4)C5)sc3c2)no1` (stereo partly drawn) [Compound II-4, 3-(2-((1R,5S)-3-((5-cyclopropyl-3-(2-(trifluoromethoxy)phenyl)isoxazol-4-yl)methoxy)-8-azabicyclo[3.2.1]octan-8-yl)-4-fluorobenzo[d]thiazol-6-yl)isoxazol-5-ol] returned an EC50 of 81.1 nM. On FXR receptor (setting [3]), the Emax is 159%. For the same compound, in the assay with diet-induced NASH mice [1], the “plasma TG levels compared to vehicle” value is recorded as “significant reduction of plasma TG levels”; the “total liver triglycerides compared to tropifexor” value is listed as “reduced total liver triglycerides than tropifexor”; the “plasma insulin levels compared to vehicle alone and to Compound 2” value is “lower insulin levels”; the “plasma ALT level compared to vehicle alone” value was “lower plasma ALT level”. For the same compound, the “plasma ALT levels compared to tropifexor” value in the assay on diet-induced NASH mice [1] is “lower plasma ALT levels”.
